Consider 6 compounds from PubChem BioAssay AID1745844 (Carcinogenic Potency Database (CPDB), 2022).

This series deals with rodent lifetime carcinogenesis bioassay, tumor incidence TD50. Put plainly: chronic cancer bioassays in animals – CPDB, compiled studies (AID 1745844).

By TD50 is commonly meant the dose at which the toxic effect under study appears in half of the subjects.

Calls of active or inactive are those of the source. How the calls were made is not given here.

As to `COc1ccc(C(=O)Nc2c(Cl)cncc2Cl)cc1OC1CCCC1`, the TD50 was 24.6 mg/kg/day (rat, strain IcoIbm:OFA (Sprague-Dawley derived), females, inhaled, site: nasal cavity, olfactory epithelium, lesion: carcinoma, dosed 102 weeks, study length 102 weeks); 1.22 mg/kg/day (rat, strain IcoIbm:OFA (Sprague-Dawley derived), females, inhaled, site: nasal cavity, olfactory epithelium, lesion: malignant tumor, dosed 102 weeks, study length 102 weeks); 12.2 mg/kg/day (rat, strain IcoIbm:OFA (Sprague-Dawley derived), females, inhaled, site: nasal cavity, olfactory epithelium, lesion: neuroblastoma, in situ, dosed 102 weeks, study length 102 weeks); 1.68 mg/kg/day (rat, strain IcoIbm:OFA (Sprague-Dawley derived), females, inhaled, site: nasal cavity, olfactory epithelium, lesion: neuroblastoma, dosed 102 weeks, study length 102 weeks); 1.18 mg/kg/day (rat, strain IcoIbm:OFA (Sprague-Dawley derived), females, inhaled, site: nasal cavity, olfactory epithelium, lesion: several types, types named in the paper, dosed 102 weeks, study length 102 weeks); 24.6 mg/kg/day (rat, strain IcoIbm:OFA (Sprague-Dawley derived), females, inhaled, site: nasal cavity, olfactory region, Bowman's gland, lesion: adenocarcinoma, dosed 102 weeks, study length 102 weeks). Besides, the TD50 reads like this: (rat, strain IcoIbm:OFA (Sprague-Dawley derived), females, inhaled, site: nasal cavity, olfactory region, Bowman's gland, lesion: adenoma, dosed 102 weeks, study length 102 weeks) 24.7 mg/kg/day; (rat, strain IcoIbm:OFA (Sprague-Dawley derived), males, inhaled, site: nasal cavity, olfactory epithelium, lesion: carcinoma, dosed 104 weeks, study length 104 weeks) 51.5 mg/kg/day; (rat, strain IcoIbm:OFA (Sprague-Dawley derived), males, inhaled, site: nasal cavity, olfactory epithelium, lesion: malignant tumor, dosed 104 weeks, study length 104 weeks) 2.48 mg/kg/day; (rat, strain IcoIbm:OFA (Sprague-Dawley derived), males, inhaled, site: nasal cavity, olfactory epithelium, lesion: neuroblastoma, in situ, dosed 104 weeks, study length 104 weeks) 17 mg/kg/day; (rat, strain IcoIbm:OFA (Sprague-Dawley derived), males, inhaled, site: nasal cavity, olfactory epithelium, lesion: neuroblastoma, dosed 104 weeks, study length 104 weeks) 3.75 mg/kg/day; (rat, strain IcoIbm:OFA (Sprague-Dawley derived), males, inhaled, site: nasal cavity, olfactory epithelium, lesion: several types, types named in the paper, dosed 104 weeks, study length 104 weeks) 2.22 mg/kg/day. The TD50 (rat, strain IcoIbm:OFA (Sprague-Dawley derived), males, inhaled, site: nasal cavity, olfactory region, Bowman's gland, lesion: adenocarcinoma, dosed 104 weeks, study length 104 weeks) is 25.6 mg/kg/day and the TD50 (rat, strain IcoIbm:OFA (Sprague-Dawley derived), males, inhaled, site: nasal cavity, olfactory region, Bowman's gland, lesion: adenoma, dosed 104 weeks, study length 104 weeks) stood at 12.7 mg/kg/day.
Take `O=NN1CCOC1=O`: the TD50 runs as follows: (rat, strain MRC-Wistar, males, in drinking water, site: any site (literature study), lesion: one or several types, types not named, dosed 70 weeks, study length 70 weeks) 0.335 mg/kg/day; (rat, strain MRC-Wistar, males, in drinking water, site: intestine, lesion: several types, types named in the paper, dosed 70 weeks, study length 70 weeks) 0.729 mg/kg/day; (rat, strain MRC-Wistar, males, in drinking water, site: liver, lesion: several types, types named in the paper, dosed 64 weeks, study length 64 weeks) 0.582 mg/kg/day; (rat, strain MRC-Wistar, males, in drinking water, site: liver, lesion: several types, types named in the paper, dosed 70 weeks, study length 70 weeks) 1.15 mg/kg/day. Besides, the carcinogen call (rat, strain MRC-Wistar, males, in drinking water, site: intestine, lesion: several types, types named in the paper, dosed 64 weeks, study length 64 weeks) was “positive”.
As for `O=[O+][O-]`, the TD50 was 1.88 mg/kg/day (mouse, strain B6C3F1, females, inhaled, site: lung, lesion: alveolar/bronchiolar adenoma + alveolar/bronchiolar carcinoma, dosed 105 weeks, study length 105 weeks); 2.09 mg/kg/day (mouse, strain B6C3F1, females, inhaled, site: lung, lesion: alveolar/bronchiolar adenoma + alveolar/bronchiolar carcinoma, dosed 130 weeks, study length 130 weeks); 1.78 mg/kg/day (mouse, strain B6C3F1, females, inhaled, site: lung, lesion: alveolar/bronchiolar adenoma, dosed 130 weeks, study length 130 weeks); 2.75 mg/kg/day (mouse, strain B6C3F1, females, inhaled, site: lung, lesion: alveolar/bronchiolar carcinoma, dosed 105 weeks, study length 105 weeks); 6.49 mg/kg/day (mouse, strain B6C3F1, females, inhaled, site: uterus, lesion: endometrial stromal polyp, dosed 105 weeks, study length 105 weeks); 0.997 mg/kg/day (mouse, strain B6C3F1, males, inhaled, site: any site (literature study), lesion: several types, types named in the paper, dosed 104 weeks, study length 104 weeks). The TD50 (mouse, strain B6C3F1, males, inhaled, site: any site (literature study), lesion: several types, types named in the paper, dosed 130 weeks, study length 130 weeks) is 1.54 mg/kg/day; the TD50 (mouse, strain B6C3F1, males, inhaled, site: liver + mesentery + spleen, lesion: hemangiosarcoma, dosed 104 weeks, study length 104 weeks) is 0.314 mg/kg/day; the TD50 (mouse, strain B6C3F1, males, inhaled, site: liver, lesion: hepatocellular adenoma + hepatoblastoma + hepatocellular carcinoma, dosed 104 weeks, study length 104 weeks) came out at 1.68 mg/kg/day; the TD50 (mouse, strain B6C3F1, males, inhaled, site: liver, lesion: hepatocellular adenoma + hepatoblastoma + hepatocellular carcinoma, dosed 130 weeks, study length 130 weeks) turned out to be 2.02 mg/kg/day; the TD50 (mouse, strain B6C3F1, males, inhaled, site: lung, lesion: alveolar/bronchiolar adenoma + alveolar/bronchiolar carcinoma, dosed 104 weeks, study length 104 weeks) is 0.894 mg/kg/day; the TD50 (mouse, strain B6C3F1, males, inhaled, site: lung, lesion: alveolar/bronchiolar adenoma + alveolar/bronchiolar carcinoma, dosed 130 weeks, study length 130 weeks) was determined as 0.961 mg/kg/day. In addition, the TD50 is 0.633 mg/kg/day (mouse, strain B6C3F1, males, inhaled, site: lung, lesion: alveolar/bronchiolar carcinoma, dosed 130 weeks, study length 130 weeks); 1.2 mg/kg/day (rat, strain Fischer 344, males, inhaled, site: any site (literature study), lesion: several types, types named in the paper, dosed 105 weeks, study length 105 weeks); 0.138 mg/kg/day (inactive) (rat, strain Fischer 344, males, inhaled, site: any site (literature study), lesion: several types, types named in the paper, dosed 122 weeks, study length 124 weeks); 2.41 mg/kg/day (rat, strain Fischer 344, males, inhaled, site: liver, lesion: hepatocellular adenoma + hepatoblastoma + hepatocellular carcinoma, dosed 122 weeks, study length 124 weeks); 0.0156 mg/kg/day (inactive) (rat, strain Fischer 344, males, inhaled, site: thyroid gland, lesion: c-cell adenoma + c-cell carcinoma, dosed 105 weeks, study length 105 weeks); 0.019 mg/kg/day (rat, strain Fischer 344, males, inhaled, site: thyroid gland, lesion: c-cell adenoma, dosed 105 weeks, study length 105 weeks). Also, the TD50 (rat, strain Sprague-Dawley, males, inhaled, site: lung, lesion: adenoma, dosed 86 weeks, study length 86 weeks) was determined as 0.204 mg/kg/day. For the same compound, the carcinogen call (rat, strain Fischer 344, females, inhaled, site: any site (literature study), lesion: several types, types named in the paper, dosed 104 weeks, study length 104 weeks) is “negative (inactive)” and the carcinogen call (rat, strain Fischer 344, females, inhaled, site: any site (literature study), lesion: several types, types named in the paper, dosed 124 weeks, study length 124 weeks) was “negative (inactive)”.
Take `Nc1ccc(N=Nc2ccccc2)c(N)n1`: the TD50 is 89.7 mg/kg/day (mouse, strain B6C3F1, females, in feed, site: any site (literature study), lesion: several types, types named in the paper, dosed 80 weeks, study length 105 weeks); 71.1 mg/kg/day (mouse, strain B6C3F1, females, in feed, site: liver, lesion: hepatocellular adenoma + hepatocellular carcinoma + neoplastic nodule, dosed 80 weeks, study length 105 weeks); 71.1 mg/kg/day (mouse, strain B6C3F1, females, in feed, site: liver, lesion: hepatocellular adenoma + hepatocellular carcinoma, dosed 80 weeks, study length 105 weeks); 132 mg/kg/day (mouse, strain B6C3F1, females, in feed, site: liver, lesion: hepatocellular carcinoma, dosed 80 weeks, study length 105 weeks); 4650 mg/kg/day (mouse, strain B6C3F1, females, in feed, site: lung, lesion: alveolar/bronchiolar adenoma + alveolar/bronchiolar carcinoma, dosed 80 weeks, study length 105 weeks); 496 mg/kg/day (inactive) (mouse, strain B6C3F1, males, in feed, site: any site (literature study), lesion: several types, types named in the paper, dosed 80 weeks, study length 105 weeks). Further, the TD50 was 811 mg/kg/day (mouse, strain B6C3F1, males, in feed, site: liver, lesion: hepatocellular adenoma + hepatocellular carcinoma + neoplastic nodule, dosed 80 weeks, study length 105 weeks); 1300 mg/kg/day (mouse, strain B6C3F1, males, in feed, site: lung, lesion: alveolar/bronchiolar adenoma + alveolar/bronchiolar carcinoma, dosed 80 weeks, study length 105 weeks); 687 mg/kg/day (rat, strain Fischer 344, females, in feed, site: colon, lesion: adenocarcinoma, NOS, dosed 78 weeks, study length 105 weeks); 303 mg/kg/day (rat, strain Fischer 344, males, in feed, site: colon + rectum, lesion: adenocarcinoma, NOS + adenoma, NOS, dosed 78 weeks, study length 104 weeks); 333 mg/kg/day (rat, strain Fischer 344, males, in feed, site: colon + rectum, lesion: adenocarcinoma, NOS, dosed 78 weeks, study length 104 weeks); 2170 mg/kg/day (rat, strain Fischer 344, males, in feed, site: liver, lesion: hepatocellular adenoma + hepatocellular carcinoma + neoplastic nodule, dosed 78 weeks, study length 104 weeks).
Regarding `O=c1cc[nH]c(=S)[nH]1`, the TD50 is 63.3 mg/kg/day (mouse, strain C3H (MTV+), females, in feed, site: liver, lesion: hepatoma, dosed 73 weeks, study length 73 weeks); 48.6 mg/kg/day (mouse, strain C3H (MTV+), males, in feed, site: liver, lesion: hepatoma, dosed 73 weeks, study length 73 weeks); 22.9 mg/kg/day (rat, strain Fischer 344, females, in feed, site: thyroid gland, lesion: malignant tumor, dosed 103 weeks, study length 103 weeks); 8.05 mg/kg/day (rat, strain Fischer 344, males, in feed, site: thyroid gland, lesion: malignant tumor, dosed 103 weeks, study length 103 weeks). The carcinogen call reads like this: (mouse, strain TM, females, in feed, site: liver, lesion: hepatoma, dosed 73 weeks, study length 73 weeks) “negative (inactive)”; (mouse, strain TM, males, in feed, site: liver, lesion: hepatoma, dosed 73 weeks, study length 73 weeks) “negative (inactive)”.
Regarding `O=C(O)c1ccc([N+](=O)[O-])cc1`, the TD50 runs as follows: (mouse, strain B6C3F1, females, in feed, site: any site (literature study), lesion: several types, types named in the paper, dosed 103 weeks, study length 104 weeks) 3160 mg/kg/day (inactive); (mouse, strain B6C3F1, females, in feed, site: lung, lesion: alveolar/bronchiolar adenoma + alveolar/bronchiolar carcinoma, dosed 103 weeks, study length 104 weeks) 2330 mg/kg/day; (mouse, strain B6C3F1, males, in feed, site: lung, lesion: alveolar/bronchiolar adenoma + alveolar/bronchiolar carcinoma, dosed 103 weeks, study length 104 weeks) 4350 mg/kg/day; (rat, strain Fischer 344, females, in feed, site: any site (literature study), lesion: several types, types named in the paper, dosed 103 weeks, study length 104 weeks) 373 mg/kg/day; (rat, strain Fischer 344, females, in feed, site: clitoral gland, lesion: adenoma + adenoma, bilateral + carcinoma + carcinoma, bilateral, dosed 103 weeks, study length 104 weeks) 287 mg/kg/day; (rat, strain Fischer 344, females, in feed, site: clitoral gland, lesion: adenoma + adenoma, bilateral, dosed 103 weeks, study length 104 weeks) 439 mg/kg/day. Further, the TD50 runs as follows: (rat, strain Fischer 344, females, in feed, site: clitoral gland, lesion: carcinoma + carcinoma, bilateral, dosed 103 weeks, study length 104 weeks) 1080 mg/kg/day; (rat, strain Fischer 344, females, in feed, site: uterus, lesion: endometrial stromal polyp + endometrial stromal sarcoma, dosed 103 weeks, study length 104 weeks) 197 mg/kg/day; (rat, strain Fischer 344, females, in feed, site: uterus, lesion: endometrial stromal polyp, dosed 103 weeks, study length 104 weeks) 220 mg/kg/day; (rat, strain Fischer 344, males, in feed, site: preputial gland, lesion: carcinoma + carcinoma, bilateral, dosed 103 weeks, study length 104 weeks) 926 mg/kg/day (inactive). Also, the carcinogen call (mouse, strain B6C3F1, males, in feed, site: any site (literature study), lesion: several types, types named in the paper, dosed 103 weeks, study length 104 weeks) was “negative (inactive)”.
